Literature values, collected in patent US20200108015A1, “Sustained Release Nitric Oxide in Intestinal Tract” (SKLAR PHARMA LLC, priority 2018, published 2020).
Where two headings read alike, the source gives them in different places.

half life (in vivo)	half life (in the blood stream)	SMILES
two	–	NC(=O)NO [Hydroxyurea, hydroxyurea]
–	about 30 minutes	CC(=O)Oc1ccccc1C(=O)O [aspirin]
